From patent US7326540B2, “Methods for identifying compounds that modulate stabilization of secretase-associated proteins” (priority 2003, dated 2008)

Legend:
[1] = test system: Aβ production in CHO cells overexpressing APP751 and PS1 WT; assay: Secreted Aβ ELISA in CHO cells overexpressing APP751 and PS1 during induced apoptosis; type: cell-based, Chinese Hamster; details: etoposide 100 μg/mL, 12 hrs
Procedure: We examined Aβ generation induced by apoptosis in CHO cell lines. We used CHO cell lines stably overexpressing both APP751 and PS1 WT. For the induction of apoptosis, we used 1 μM staurosporine (STS) in serum free media. Secreted Aβ was measured in the conditioned media of cells treated with STS for 6 hrs using a sensitive ELISA assay [courtesy of Dr. Dennis Selkoe; M. S. Wolfe et al., Nature 398, 513-7 (1999)].
Treatment with either STS for 6 hrs or etoposide for 12 hrs induced from 10 to 20% of cell death assayed by MTT assay, which is a colorimetric short-term suspension culture assay in which the yellow tetrazolium salt (MTT) is reduced in metabolically active cells to form insoluble purple formazan crystals, which are solubilized by the addition of a detergent.
Chinese Hamster Ovary (CHO) cells expressing APP751 and BACE (CAB), CHO cells expressing full-length APP and wild-type PS1 (CHO-APP751/PS1) or expressing C99 and wild-type PS1 (CHO-CC99/PS1), H4 human neuroglioma cells expressing APP751 (H4-APP751), mouse embryonic fibroblast (MEF), embryonic stem (ES) cells, and human epithelial A431 cells were grown as described previously (Marambaud, P. et al., Embo J 21, 1948-56 (2002); Cai, H. et al., Nat Neurosci 4, 233-4 (2001); Sato, N. et al., Nat Cell Biol 2, 863-70 (2000); Puglielli, L., Ellis, B. C., Saunders, A. J. & Kovacs, D. M., J Biol Chem 278, 19777-83 (2003); Wolfe, M. S. et al., Nature 398, 513-7 (1999)). For the induction of apoptosis, we used staurosporine or etoposide (Calbiochem (EMD Biosciences, San Diego, Calif.)). For Aβ measurements, cells were seeded at the density of 0.5×10^6 cells per well in 6 well plates. After 48 hours, cells were treated with either STS (1 μM) for 6 hours. […] For time-course experiments, cells were seeded at the density of 2×10^6 cells per 100 mm dish and treated with STS (1 μM) or etoposide (100 μg/mL). At different time points (0, 3, 6, 9, 12 and 24 hours), the cells were scraped, centrifuged and then lysed in buffer containing 1% NP40. Western blot analysis was performed as previously described (Tesco, G., Koh, Y. H. & Tanzi, R. E., J Biol Chem 278, 46074-80 (2003)). Densitometry analysis was performed on a Macintosh computer using the public domain NIH Image program (developed at the U.S. National Institutes of Health and available on the Internet at http://rsb.info.nih.gov/nih-image/).
Secreted Aβ1-total was measured in the conditioned media of untreated cells or of cells treated with STS or STS plus zVAD using a sensitive ELISA (Wolfe, M. S. et al., Nature 398, 513-7 (1999). At least three different experiments were carried out and each experiment was performed at least in triplicate.

BACE = BACE protein levels by Western blot and densitometry in CAB cells; type: cell-based, Chinese Hamster; details: etoposide (ETO) treatment, CAB cells
Procedure: Chinese Hamster Ovary (CHO) cells expressing APP751 and BACE (CAB), CHO cells expressing full-length APP and wild-type PS1 (CHO-APP751/PS1) or expressing C99 and wild-type PS1 (CHO-CC99/PS1), H4 human neuroglioma cells expressing APP751 (H4-APP751), mouse embryonic fibroblast (MEF), embryonic stem (ES) cells, and human epithelial A431 cells were grown as described previously (Marambaud, P. et al., Embo J 21, 1948-56 (2002); Cai, H. et al., Nat Neurosci 4, 233-4 (2001); Sato, N. et al., Nat Cell Biol 2, 863-70 (2000); Puglielli, L., Ellis, B. C., Saunders, A. J. & Kovacs, D. M., J Biol Chem 278, 19777-83 (2003); Wolfe, M. S. et al., Nature 398, 513-7 (1999)). For the induction of apoptosis, we used staurosporine or etoposide (Calbiochem (EMD Biosciences, San Diego, Calif.)). For Aβ measurements, cells were seeded at the density of 0.5×10^6 cells per well in 6 well plates. After 48 hours, cells were treated with either STS (1 μM) for 6 hours. In order to inhibit caspase activation a sister plate of cells was pre-treated with zVAD ([…], Enzyme Systems Products) for 1 hour before STS treatment. For time-course experiments, cells were seeded at the density of 2×10^6 cells per 100 mm dish and treated with STS (1 μM) or etoposide (100 μg/mL). At different time points (0, 3, 6, 9, 12 and 24 hours), the cells were scraped, centrifuged and then lysed in buffer containing 1% NP40. Western blot analysis was performed as previously described (Tesco, G., Koh, Y. H. & Tanzi, R. E., J Biol Chem 278, 46074-80 (2003)). Densitometry analysis was performed on a Macintosh computer using the public domain NIH Image program (developed at the U.S. National Institutes of Health and available on the Internet at http://rsb.info.nih.gov/nih-image/).
It has been previously shown that overexpression of BACE enhances β-secretase cleavage of APP leading to the accumulation of intracellular C99 (Vassar, R. et al., Science 286, 735-41 (1999)). We first asked whether apoptosis/caspase activation leads to accumulation of C99 owing to increased β-secretase activity.

proteasome = assay: Proteasome inhibition: BACE and nicastrin protein levels by Western blot in H4 cells; type: cell-based, human
Procedure: Densitometric analysis was performed with NIH image and reported in bar graphs (FIG. 8B).

E-cadherin = E-cadherin proteolysis in A431 cells during STS-induced apoptosis (Western blot, C36 antibody); type: cell-based, human; details: then STS 6 hours
Procedure: FIG. 11 provides digitized images and graphs showing that apoptosis enhances γ-secretase activity and levels of γ-secretase complex proteins. FIG. 11a: Apoptosis was induced in CAB, CHO-CC99/PS1 and CHO-APP 751/PS1 by STS treatment for 6 hours with or without zVAD (100 μM). Secreted Aβ1−total was measured by ELISA. […] Each bar represents the mean and SD of quadruplicate determinations. FIG. 11b: Western blot analysis with the antibody, A8717, detected endogenous APP-FL and overexpressed C99 in CHO-CC99/PS1cells, while overexpressed APP-FL and C83 were detected in CHO-APP751/PS1 cells. FIG. 11c: A431 human epithelial cells were pre-incubated for 30 min in the absence (−) or presence (+) of zVAD-FMK (100 μM), L-685,458 (0.5 μM) or GM6001 (2.5 μM). Cells were then treated with STS for 6 hours to induce apoptosis, and cell extracts were probed with anti-E-cadherin C36 antibody. FIG. 11d: Protein levels of γ-secretase complex components were monitored by Western blotting employing the anti-nicastrin, Ab14, PNT2, H2D2 antibodies. Densitometry analysis was performed using NIH image software. Each bar represents the mean and SEM of at least three experiments. FIG. 11e: Nicastrin was transiently transfected in the A431 cells. Western blot analysis for E-cadherin and γ-secretase complex component was performed as in FIG. 11c and FIG. 11d β-tubulin was used as loading control.
To confirm that apoptosis/caspase activation increases γ-secretase activity, we next examined the proteolysis of E-cadherin, another γ-secretase substrate (Marambaud, P. et al., Embo J21, 1948-56 (2002)) during apoptosis. We confirmed that caspase activation enhanced the production of E-Cad/CTF1 (Steinhusen, U. et al., J Biol Chem 276, 4972-80 (2001)), E-Cad/CTF2 (Marambaud, P. et al., 2002) (˜2- and 3-fold increase by densitometry analysis, respectively), and generated E-Cad/CTF3 (Marambaud, P. et al., 2002) (FIG. 11c). […]

COc1cc([C@@H]2c3cc4c(cc3[C@@H](O[C@@H]3O[C@@H]5CO[C@@H](C)O[C@H]5[C@H](O)[C@H]3O)[C@H]3COC(=O)[C@H]23)OCO4)cc(OC)c1O [etoposide]
Secreted Aβ1-42 [1]: increased | Secreted Aβtotal [1]: increased | BACE protein levels (BACE): increase

CC(=O)N[C@@H](CSC(=O)[C@]1([C@@H](O)C(C)C)NC(=O)[C@H](C)[C@@H]1O)C(=O)O [Lactacystin, lactacystin]
protein levels of nicastrin (proteasome; Lactacystin 10 μM for 24 hrs, medium containing 10% serum): increased | BACE full length and BACE-CTF levels (proteasome; Lactacystin treatment, H4 cells): did not affect

CC(C)C[C@H](NC(=O)[C@H](Cc1ccccc1)C[C@@H](O)[C@H](Cc1ccccc1)NC(=O)OC(C)(C)C)C(=O)N[C@@H](Cc1ccccc1)C(N)=O [L-685,458]
generation of E-Cad/CTF2 (E-cadherin; L-685,458 0.5 μM pre-incubated 30 min): inhibited

CNC(=O)[C@H](Cc1c[nH]c2ccccc12)NC(=O)[C@@H](CC(=O)NO)CC(C)C [GM6001]
generation of E-Cad/CTF1 (E-cadherin; GM6001 2.5 μM pre-incubated 30 min): inhibited
